Reference: patent US12180187B2, “1-phenyl-5-azinylpyrazolyl-3-oxyalkyl acids and their use for controlling unwanted plant growth” (BAYER AKTIENGESELLSCHAFT, priority 2019, dated 2024)

Key:
[1] = system: AMARE; assay: Post-emergence action against AMARE, 1.28 kg/ha; type: in vivo, Amaranthus retroflexus; settings: dosage 1280 g/ha, visual rating about 3 weeks after treatment vs untreated controls (100% = plants died)
Method in brief: (§1)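 Percent activity was scored visually ~3 wk post-spray relative to untreated plants. Treatment was post-emergence at the one-leaf stage using WP/EC in water with 0.5% additive (600 L/ha).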

[2] = system: LOLRI; assay: Pre-emergence action against LOLRI, 1280 g/ha; type: in vivo, Lolium rigidum; settings: visual scoring after about 3 weeks vs untreated controls, 100% = plants have died, 0% = like control plants
Method in brief: (§2)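 Greenhouse pre-emergence test on sown seeds in sandy loam; soil-surface spray of formulated compound with 0.5% additive at 600 L/ha water. Scored visually, % vs untreated, after about 3 weeks.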

[3] = system: VERPE; assay: Pre-emergence action at 320 g/ha against VERPE; type: in vivo, Veronica persica; settings: visual scoring after about 3 weeks vs untreated controls
Method in brief: (§3)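 Pre-emergence soil-surface spray: WP or EC formulation, aqueous, 0.5% additive, 600 l/ha water volume. Greenhouse growth about 3 weeks; visual percent effect relative to untreated pots.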

[4] = system: SETVI; assay: Post-emergence action against SETVI, 1.28 kg/ha; type: in vivo, Setaria viridis; settings: dosage 1280 g/ha, visual rating about 3 weeks after treatment vs untreated controls
Method in brief: as §1

[5] = system: KCHSC; assay: Pre-emergence action against KCHSC, 1280 g/ha; type: in vivo, Bassia scoparia; settings: scored visually after about 3 weeks vs untreated controls (100% = plants have died)
Method in brief: as §2

[6] = system: STEME; assay: Post-emergence action against STEME, 1.28 kg/ha; type: in vivo, Stellaria media; settings: dosage 1280 g/ha, visual rating about 3 weeks after treatment vs untreated controls (100% = plants died)
Method in brief: as §1

[7] = system: PHBPU; assay: Pre-emergence action at 320 g/ha against PHBPU; type: in vivo; settings: visual scoring after about 3 weeks vs untreated controls
Method in brief: as §3

[8] = system: AMARE; assay: Pre-emergence action against AMARE, 1280 g/ha; type: in vivo, Amaranthus retroflexus; settings: scored visually after about 3 weeks vs untreated controls (100% = plants have died)
Method in brief: as §2

[9] = system: STEME; assay: Pre-emergence action against STEME, 1280 g/ha; type: in vivo, Stellaria media; settings: scored visually after about 3 weeks vs untreated controls (100% = plants have died)
Method in brief: as §2

[10] = system: VERPE; assay: Pre-emergence action against VERPE, 1280 g/ha; type: in vivo, Veronica persica; settings: scored visually after about 3 weeks vs untreated controls (100% = plants have died)
Method in brief: as §2

[11] = system: ABUTH; assay: Pre-emergence action at 320 g/ha against ABUTH; type: in vivo, Abutilon theophrasti; settings: greenhouse, scored visually after about 3 weeks vs untreated controls, 100% = plants have died, 0% = like control plants
From the text: b) Seeds of monocotyledonous and dicotyledonous weed plants and crop plants are placed in plastic or organic planting pots and covered with soil. The compounds of the invention, formulated in the form of wettable powders (WP) or as emulsion concentrates (EC), are then applied onto the surface of the covering soil as aqueous suspension or emulsion with addition of 0.5% additive at a water application rate of 600 l/ha (converted). After the treatment, the pots are placed in a greenhouse and kept under good growth conditions for the trial plants. After about 3 weeks, the effect of the preparations is scored visually in comparison with untreated controls as percentages. For example, 100% activity=the plants have died, 0% activity=like control plants. Tables 13 to 26 below show the effects of selected compounds of the general formula (I) on various harmful plants and at an application rate corresponding to 320 g/ha, which were obtained by the experimental procedure mentioned above.

[12] = system: DIGSA; assay: Pre-emergence action at 320 g/ha against DIGSA; type: in vivo, Digitaria sanguinalis; settings: visual scoring after about 3 weeks vs untreated controls
Method in brief: as §3

[13] = system: ECHGC; assay: Pre-emergence action at 320 g/ha against ECHGC; type: in vivo, Echinochloa crus-galli; settings: visual scoring after about 3 weeks vs untreated controls
Method in brief: as §3

[14] = system: LOLRI; assay: Pre-emergence action at 320 g/ha against LOLRI; type: in vivo, Lolium rigidum; settings: visual scoring after about 3 weeks vs untreated controls
Method in brief: as §3

[15] = system: ECHCG; assay: Pre-emergence action against ECHCG, 1280 g/ha; type: in vivo, Echinochloa crus-galli; settings: visual scoring after about 3 weeks vs untreated controls, 100% = plants have died, 0% = like control plants
Method in brief: as §2

[16] = system: ABUTH; assay: Pre-emergence action against ABUTH, 1280 g/ha; type: in vivo, Abutilon theophrasti; settings: scored visually after about 3 weeks vs untreated controls (100% = plants have died)
Method in brief: as §2

[17] = system: DIGSA; assay: Post-emergence action against DIGSA, 1.28 kg/ha; type: in vivo, Digitaria sanguinalis; settings: dosage 1280 g/ha, visual rating about 3 weeks after treatment vs untreated controls
Method in brief: as §1

[18] = system: POAAN; assay: Post-emergence action against POAAN, 1.28 kg/ha; type: in vivo, Poa annua; settings: dosage 1280 g/ha, visual rating about 3 weeks after treatment vs untreated controls
Method in brief: as §1

[19] = system: ABUTH; assay: Post-emergence action against ABUTH, 1.28 kg/ha; type: in vivo, Abutilon theophrasti; settings: dosage 1280 g/ha, visual rating about 3 weeks after treatment vs untreated controls (100% = plants died)
Method in brief: as §1

[20] = system: VIOTR; assay: Pre-emergence action at 320 g/ha against VIOTR; type: in vivo, Viola tricolor; settings: dosage 320 g/ha
Method in brief: as §3

[21] = system: VERPE; assay: Post-emergence action against VERPE, 1.28 kg/ha; type: in vivo, Veronica persica; settings: dosage 1280 g/ha, visual rating about 3 weeks after treatment vs untreated controls (100% = plants died)
Method in brief: as §1

[22] = system: LOLRI; assay: Post-emergence action against LOLRI, 1.28 kg/ha; type: in vivo, Lolium rigidum; settings: dosage 1280 g/ha, visual rating about 3 weeks after treatment vs untreated controls
Method in brief: as §1

[23] = system: AVEFA; assay: Pre-emergence action at 320 g/ha against AVEFA; type: in vivo; settings: visual scoring after about 3 weeks vs untreated controls
Method in brief: as §3

[24] = system: SETVI; assay: Pre-emergence action against SETVI, 1280 g/ha; type: in vivo, Setaria viridis; settings: visual scoring after about 3 weeks vs untreated controls, 100% = plants have died, 0% = like control plants
Method in brief: as §2

[25] = system: POAAN; assay: Pre-emergence action against POAAN, 1280 g/ha; type: in vivo, Poa annua; settings: visual scoring after about 3 weeks vs untreated controls, 100% = plants have died, 0% = like control plants
Method in brief: as §2

[26] = system: MATIN; assay: Pre-emergence action against MATIN, 1280 g/ha; type: in vivo, Tripleurospermum inodorum (Matricaria inodora); settings: scored visually after about 3 weeks vs untreated controls (100% = plants have died)
Method in brief: as §2

[27] = system: MATIN; assay: Post-emergence action against MATIN, 1.28 kg/ha; type: in vivo, Tripleurospermum inodorum (Matricaria inodora); settings: dosage 1280 g/ha, visual rating about 3 weeks after treatment vs untreated controls (100% = plants died)
Method in brief: as §1

[28] = system: SETVI; assay: Pre-emergence action at 320 g/ha against SETVI; type: in vivo, Setaria viridis; settings: visual scoring after about 3 weeks vs untreated controls
Method in brief: as §3

[29] = system: ALOMY; assay: Pre-emergence action against ALOMY, 1280 g/ha; type: in vivo, Alopecurus myosuroides; settings: visual scoring after about 3 weeks vs untreated controls, 100% = plants have died, 0% = like control plants
Method in brief: as §2

[30] = system: ECHCG; assay: Post-emergence action against ECHCG, 1.28 kg/ha; type: in vivo, Echinochloa crus-galli; settings: dosage 1280 g/ha, visual rating about 3 weeks after treatment vs untreated controls
Method in brief: as §1

[31] = system: POLCO; assay: Pre-emergence action at 320 g/ha against POLCO; type: in vivo, Fallopia convolvulus (Polygonum convolvulus); settings: visual scoring after about 3 weeks vs untreated controls
Method in brief: as §3

[32] = system: AMARE; assay: Pre-emergence action at 320 g/ha against AMARE; type: in vivo, Amaranthus retroflexus; settings: visual scoring after about 3 weeks vs untreated controls
Method in brief: as §3

[33] = system: DIGSA; assay: Pre-emergence action against DIGSA, 1280 g/ha; type: in vivo, Digitaria sanguinalis; settings: visual scoring after about 3 weeks vs untreated controls, 100% = plants have died, 0% = like control plants
Method in brief: as §2

[34] = system: ALOMY; assay: Post-emergence action against ALOMY, 1.28 kg/ha; type: in vivo, Alopecurus myosuroides; settings: dosage 1280 g/ha, visual rating about 3 weeks after treatment vs untreated controls
Method in brief: as §1

[35] = system: ALOMY; assay: Pre-emergence action at 320 g/ha against ALOMY; type: in vivo, Alopecurus myosuroides; settings: scored visually after about 3 weeks vs untreated controls (100% = plants have died)
Method in brief: as §3

[36] = system: MATIN; assay: Pre-emergence action at 320 g/ha against MATIN; type: in vivo, Tripleurospermum inodorum (Matricaria inodora); settings: visual scoring after about 3 weeks vs untreated controls
Method in brief: as §3

Structure (SMILES): N#CCCOC(=O)COc1nn(-c2ccccc2F)c(-c2ccc(F)nc2)c1Br [VII-104]
- Post-emergence action against AMARE [1]: 90%
- Pre-emergence action against LOLRI [2]: 100%
- Pre-emergence action against VERPE in % [3]: 100%
- Post-emergence action against SETVI [4]: 90%
- Pre-emergence action against KCHSC [5]: 90%
- Post-emergence action against STEME [6]: 90%
- Pre-emergence action against PHBPU in % [7]: 100%
- Pre-emergence action against AMARE [8]: 100%
- Pre-emergence action against STEME [9]: 100%
- Pre-emergence action against VERPE [10]: 100%
- Pre-emergence action at 320 g/ha against ABUTH in % [11]: 80%
- Pre-emergence action against DIGSA in % [12]: 100%
- Pre-emergence action against ECHGC in % [13]: 100%
- Pre-emergence action against LOLRI in % [14]: 100%
- Pre-emergence action against ECHCG [15]: 100%
- Pre-emergence action against ABUTH [16]: 90%
- Post-emergence action against DIGSA [17]: 100%
- Post-emergence action against POAAN [18]: 100%
- Post-emergence action against ABUTH [19]: 90%
- Pre-emergence action against VIOTR in % [20]: 100%
- Post-emergence action against VERPE [21]: 90%
- Post-emergence action against LOLRI [22]: 100%
- Pre-emergence action against AVEFA in % [23]: 90%
- Pre-emergence action against SETVI [24]: 100%
- Pre-emergence action against POAAN [25]: 100%
- Pre-emergence action against MATIN [26]: 100%
- Post-emergence action against MATIN [27]: 100%
- Pre-emergence action against SETVI in % [28]: 100%
- Pre-emergence action against ALOMY [29]: 100%
- Post-emergence action against ECHCG [30]: 100%
- Pre-emergence action against POLCO in % [31]: 90%
- Pre-emergence action against AMARE in % [32]: 100%
- Pre-emergence action against DIGSA [33]: 100%
- Post-emergence action against ALOMY [34]: 100%
- Pre-emergence action at 320 g/ha against ALOMY in % [35]: 100%
- Pre-emergence action against MATIN in % [36]: 100%

Structure (SMILES): CCOC(=O)CN(C)S(=O)(=O)NC(=O)COc1nn(-c2ccccc2F)c(-c2ccc(F)nc2)c1Br [Example X-031]
- Pre-emergence action against VERPE in % [3]: 90%
- Pre-emergence action against PHBPU in % [7]: 90%
- Pre-emergence action at 320 g/ha against ABUTH in % [11]: 80%
- Pre-emergence action against DIGSA in % [12]: 100%
- Pre-emergence action against ECHGC in % [13]: 80%
- Pre-emergence action against LOLRI in % [14]: 80%
- Pre-emergence action against VIOTR in % [20]: 90%
- Pre-emergence action against AVEFA in % [23]: 80%
- Pre-emergence action against SETVI in % [28]: 100%
- Pre-emergence action against POLCO in % [31]: 80%
- Pre-emergence action against AMARE in % [32]: 90%
- Pre-emergence action at 320 g/ha against ALOMY in % [35]: 90%
- Pre-emergence action against MATIN in % [36]: 80%
